Measured values as given in patent US20250041303A1, “COMBINATION THERAPY FOR CANCER TREATMENT” (INSTITUTE FOR CANCER RESEARCH D/B/A THE RESEARCH INSTITUTE …, priority 2021, published 2025).

Key:
[1] = tested on: A1847 and SUM159 parental and degrader-resistant cells; assay: CellTiter-Glo cell viability, parental vs degrader-resistant cells
DLD-1 cells = assay: Colony formation assay (14 days) in DLD-1 cells; settings: for colony formation on co-treatment with dBET6: dBET6 0.1 μM plus the compound at 2 μM, 14-day period
MDR1 [2] = molecular target: T1, MDR1 (Homo sapiens, UniProt P08183); assay: Rhodamine 123 efflux assay in degrader-resistant cells; format: cell-based; design: endogenous in cells; host or cells: A1847 parental, dBET6-R, Thal-R; SUM159 parental, MZ1-R; settings: 2 μM
T1 sequence (P08183 whole entry): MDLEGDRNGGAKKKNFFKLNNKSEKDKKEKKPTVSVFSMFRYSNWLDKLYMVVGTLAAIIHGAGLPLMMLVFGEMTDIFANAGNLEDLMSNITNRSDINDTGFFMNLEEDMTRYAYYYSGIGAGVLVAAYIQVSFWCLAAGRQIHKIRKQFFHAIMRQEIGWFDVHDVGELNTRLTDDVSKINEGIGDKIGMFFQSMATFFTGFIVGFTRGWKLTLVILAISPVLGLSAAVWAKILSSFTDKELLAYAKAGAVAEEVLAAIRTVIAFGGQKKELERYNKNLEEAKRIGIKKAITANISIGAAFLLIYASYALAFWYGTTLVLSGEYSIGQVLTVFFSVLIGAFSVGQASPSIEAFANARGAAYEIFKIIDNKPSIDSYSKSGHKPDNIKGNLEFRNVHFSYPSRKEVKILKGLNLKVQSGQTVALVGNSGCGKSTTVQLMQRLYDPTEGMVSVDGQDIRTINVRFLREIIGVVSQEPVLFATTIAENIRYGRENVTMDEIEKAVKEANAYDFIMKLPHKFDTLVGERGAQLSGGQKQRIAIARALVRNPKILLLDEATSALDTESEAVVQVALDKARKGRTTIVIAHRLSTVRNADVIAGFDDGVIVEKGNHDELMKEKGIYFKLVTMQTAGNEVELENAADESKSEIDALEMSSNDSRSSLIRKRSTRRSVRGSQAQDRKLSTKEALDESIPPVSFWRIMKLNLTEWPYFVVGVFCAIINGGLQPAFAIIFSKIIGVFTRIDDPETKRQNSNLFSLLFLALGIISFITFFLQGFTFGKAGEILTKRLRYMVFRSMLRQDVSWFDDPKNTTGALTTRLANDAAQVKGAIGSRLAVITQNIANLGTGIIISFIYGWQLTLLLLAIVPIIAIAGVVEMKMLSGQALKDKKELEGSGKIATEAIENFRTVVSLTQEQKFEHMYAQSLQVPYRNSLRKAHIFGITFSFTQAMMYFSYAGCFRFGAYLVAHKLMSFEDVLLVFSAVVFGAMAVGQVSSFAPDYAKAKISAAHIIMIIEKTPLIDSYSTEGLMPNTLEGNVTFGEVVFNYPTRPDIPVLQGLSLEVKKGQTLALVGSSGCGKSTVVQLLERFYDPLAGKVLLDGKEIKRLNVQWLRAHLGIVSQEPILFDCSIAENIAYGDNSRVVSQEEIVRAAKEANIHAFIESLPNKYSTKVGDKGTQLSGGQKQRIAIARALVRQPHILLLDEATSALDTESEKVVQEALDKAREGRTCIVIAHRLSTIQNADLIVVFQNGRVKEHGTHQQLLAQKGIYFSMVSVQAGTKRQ
Protocol: (§1) Efflux assay was performed according to manufacturer's protocol (Millipore Sigma #ECM910). Cells were resuspended in cold efflux buffer and incubated with Rhodamine 123 for 1 hour on ice. Cells were centrifuged and treated in warm efflux buffer with DMSO or drug for 30-60 minutes, washed with cold PBS, and effluxed dye was quantified with a plate reader at an excitation wavelength of 485 nm and an emission wavelength of 530 nm.

BRD4 (BET proteins) = molecular target: T2, BRD4 (BET proteins) (Homo sapiens, UniProt O60885); assay: Western blot of BET protein/BRD4 degradation in DLD-1 cells; format: cell-based; settings: 4 hours; for dBET6-mediated degradation of BRD4 on combined treatment: increasing doses of dBET6 plus the compound at 2 μM
T2 construct: endogenous in cells; host or cells: DLD-1
Protocol: (§2) Samples were harvested in MIB lysis buffer (50 mM HEPES (pH 7.5), 0.5% Triton X-100, 150 mM NaCl, 1 mM EDTA, 1 mM EGTA, 10 mM sodium fluoride, 2.5 mM sodium orthovanadate, 1× protease inhibitor cocktail (Roche), and 1% each of phosphatase inhibitor cocktails 2 and 3 (Sigma)). Particulate was removed by centrifugation of lysates at 21,000 rpm for 15 minutes at 4° C. Lysates were subjected to SDS-PAGE chromatography and transferred to PVDF membranes before western blotting with primary antibodies. […] Secondary HRP-anti-rabbit and HRP-anti-mouse were obtained from ThermoFisher Scientific. SuperSignal West Pico and Femto Chemiluminescent Substrates (Thermo) were used to visualize blots.

[3] = tested on: K-ras mutant CRC cell lines (LS1034, LS513, SW948, SW1463, SKCO1, NCIH747, SW620); assay: Cell viability (CellTiter-Glo) and colony formation of K-ras mutant CRC cell lines; settings: escalating doses 5 days (viability); 1 μM 14 days (colony formation)
MEK1/2 [4] = assay: Western blot of MEK1/2 degradation and ERK1/2 phosphorylation in LS513 cells; format: cell-based; settings: LS513 (MDR1-overexpressing) vs SKCO1; escalating doses, 4 hours
Protocol: as §2

MEK1/2 [5] = assay: Western blot of MEK1/2 degrader target in DLD-1 cells; format: cell-based; settings: 1 μM, 24 hours
[6] = tested on: HCT-15, DLD-1 and CAKI-1 cells (MDR1 overexpressing); assay: CellTiter-Glo cell viability of MDR1 overexpressing vs low MDR1 cancer cell lines; settings: HCT-15, DLD-1, CAKI-1 vs A1847, SUM159, MOLT4; escalating doses, 5 days
[7] = tested on: OVCAR3, HCT116, and MOLT4 cells; assay: CellTiter-Glo cell viability, parental vs MZ1 chronically exposed cells; settings: 5 days
[8] = tested on: BET proteins (BRD2, BRD3 or BRD4); assay: Western blot of BET protein degradation, parental vs degrader-resistant cells; format: cell-based; settings: for degradation of BET proteins by escalating doses: 0-10 μM, 24 hours
Protocol: as §2

MDR1 (ABCB1) = assay: Single-run proteomics (LC-MS/MS, label-free quantitation) of degrader-resistant cells; format: cell-based, human
Protocol: To determine changes in cells chronically exposed to BET or CDK9 PROTACs, we performed single-run proteome analysis as previously described (Lai et al., Front. Oncol., 2020, 10, 2336). Briefly, WT or PROTAC-R cells were lysed in 50 mM HEPES pH 8.0+4% SDS, and 100 μg of proteins were digested using LysC and trypsin. Digested peptides were isolated using C-18 and PGC columns, then dried and cleaned with ethyl acetate. Three […] peptides were analyzed using LC-MS/MS. MaxQuant normalized LFQ values were imported into Perseus software (1.6.2.3) and filtered in the following manner: kinases identified by site only were removed, reverse, or potential contaminant were removed then filtered for kinases identified by >1 unique peptide. Protein LFQ values were log 2 transformed, filtered for a minimum valid number of 3, normalized using Z-scores, annotated, and subjected to a Student's t-test with comparing […]. […]
Proteolytic peptides were resuspended in 0.1% formic acid and separated with a Thermo Scientific RSLC nano Ultimate 3000 LC on a Thermo Scientific Easy-Spray C18 PepMap 75 μm×50 cm C-18 2 μm column. […] Eluted peptides were analyzed by Thermo Scientific Q Exactive or Q Exactive plus mass spectrometers utilizing a top 15 methodology in which the 15 most intense peptide precursor ions were subjected to fragmentation. […]
Raw data analysis of LFQ experiments was performed using MaxQuant software 1.6.1.0 and searched using Andromeda 1.5.6.0 against the Swiss-Prot human protein database (downloaded on Apr. 24, 2019, 20402 entries). […] LFQ quantitation was performed using MaxQuant with the following parameters; LFQ minimum ratio count: Global parameters for protein quantitation were as follows: label minimum ratio count: 1, peptides used for quantitation: unique, only use modified proteins selected and with normalized average ratio estimation selected. Match between runs was employed for LFQ quantitation and the significance threshold of the ion score was calculated based on a false discovery rate of <1%.

ABCB1 (MDR1) = assay: ABCB1 expression and MDR1 protein by qRT-PCR and immunoblot after chronic MZ1 exposure; format: cell-based
Protocol: GeneJET RNA purification kit (Thermo Scientific) was used to isolate RNA from cells according to manufacturer's instructions. qRT-PCR on diluted cDNA was performed with inventoried TaqMan® Gene Expression Assays on the Applied Biosystems 7500 Fast Real-Time PCR System. The TaqMan Gene Expression Assay probes (ThermoFisher Scientific) used to assess changes in gene expression include ABCB1 (Assay ID: Hsxxxx), and ACTB (control) (Assay ID: Hsxxxx).

A1847 or SUM159 cells = assay: Colony formation assay (14 days, crystal violet); settings: SUM159 cells expressing Flag-MDR1, MZ1 0.1 μM, with or without tariquidar 0.1 μM
MDR1 [9] = molecular target: T1, MDR1; assay: Rhodamine 123 efflux assay in DLD-1 cells; format: cell-based; design: endogenous in cells; settings: 2 μM
Protocol: as §1

[10] = tested on: A1847 dBET6-R or Thal-R cells; assay: Apoptosis by western blot in degrader-resistant A1847 cells; format: cell-based; settings: 2 μM, 4 hours
Protocol: as §2

CDK9 [11] = molecular target: T3, CDK9 (Homo sapiens, UniProt P50750); assay: Western blot of CDK9 degradation in DLD-1 cells; format: cell-based; design: endogenous in cells; host or cells: DLD-1; settings: DLD-1; increasing doses of Thal SNS 032 plus the compound at 2 μM, 4 hours
T3 sequence (P50750 whole entry): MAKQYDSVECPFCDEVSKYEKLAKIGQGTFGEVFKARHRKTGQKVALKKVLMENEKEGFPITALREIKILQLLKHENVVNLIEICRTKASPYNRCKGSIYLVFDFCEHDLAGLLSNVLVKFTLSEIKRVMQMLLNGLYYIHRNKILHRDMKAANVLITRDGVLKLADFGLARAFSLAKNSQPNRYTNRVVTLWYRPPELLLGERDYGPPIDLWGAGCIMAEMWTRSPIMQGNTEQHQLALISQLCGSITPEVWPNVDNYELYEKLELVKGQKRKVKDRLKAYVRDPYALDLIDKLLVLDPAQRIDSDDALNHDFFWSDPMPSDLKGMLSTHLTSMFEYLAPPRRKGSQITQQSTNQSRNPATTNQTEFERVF
T3 sequence (O60563 whole entry partner): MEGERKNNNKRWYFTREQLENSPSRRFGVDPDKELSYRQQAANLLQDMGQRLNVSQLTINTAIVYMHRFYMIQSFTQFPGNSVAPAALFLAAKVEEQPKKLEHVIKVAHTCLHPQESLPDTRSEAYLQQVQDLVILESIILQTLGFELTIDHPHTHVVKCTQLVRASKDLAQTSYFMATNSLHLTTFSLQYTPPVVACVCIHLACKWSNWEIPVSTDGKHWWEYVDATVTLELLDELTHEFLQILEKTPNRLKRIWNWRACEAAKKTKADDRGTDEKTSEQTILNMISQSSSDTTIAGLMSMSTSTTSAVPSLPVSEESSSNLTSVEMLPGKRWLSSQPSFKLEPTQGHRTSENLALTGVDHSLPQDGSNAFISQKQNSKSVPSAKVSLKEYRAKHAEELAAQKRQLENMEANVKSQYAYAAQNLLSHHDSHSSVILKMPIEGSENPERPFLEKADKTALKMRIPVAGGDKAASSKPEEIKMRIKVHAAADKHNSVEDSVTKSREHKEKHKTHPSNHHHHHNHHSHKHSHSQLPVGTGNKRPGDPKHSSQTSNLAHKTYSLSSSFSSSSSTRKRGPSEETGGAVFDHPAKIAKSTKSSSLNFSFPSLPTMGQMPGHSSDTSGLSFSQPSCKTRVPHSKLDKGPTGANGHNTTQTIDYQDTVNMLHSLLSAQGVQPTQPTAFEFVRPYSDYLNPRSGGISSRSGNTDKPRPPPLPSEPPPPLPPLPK
Protocol: as §2

CDK9 [12] = molecular target: T3, CDK9; assay: Western blot of CDK9 degradation, A1847 parental vs Thal-R cells; format: cell-based; settings: A1847 Thal-R vs parental; 2 μM, 4 hours
Protocol: as §2

[13] = A1847 parental vs chronically exposed cells, escalating doses, 5 days

## Cc1sc2c(c1C)C(c1ccc(Cl)cc1)=N[C@@H](CC(=O)OC(C)(C)C)c1nnc(C)n1-2 [JQ1]
[1]; A1847 JQ1-R vs parental and dBET6-R cells
  sensitization to tariquidar after chronic exposure: did not cause sensitization to tariquidar

## COc1ccc(-c2ccc3c(N4CCOCC4)nc(N4C[C@@H](C)O[C@@H](C)C4)nc3n2)cc1CO [KU-0063794]
DLD-1 cells; 2 μM, 14 days
  colony formation, single agent: completely repressed colony formation
DLD-1 cells
  colony formation on co-treatment with dBET6: did not improve growth inhibition
MDR1 [2]; A1847 Thal-R cells
  MDR1 drug efflux activity (Rhodamine 123 efflux): does not reduce MDR1 drug efflux activity
BRD4 (BET proteins)
  dBET6-mediated degradation of BRD4 on combined treatment: failed to improve degradation of BRD4

## Cc1ncsc1-c1ccc([C@H](C)NC(=O)[C@@H]2C[C@@H](O)CN2C(=O)[C@@H](NC(=O)CCCCCCCCCCNCCCONC(=O)c2ccc(F)c(F)c2Nc2ccc(I)cc2F)C(C)(C)C)cc1 [MS432]
[3]
  resistance of MDR1 overexpressing vs MDR1 low expressing CRC cell lines: more resistant
MEK1/2 [4]
  MEK1 or MEK2 protein levels, ERK1/2 phosphorylation, apoptosis: did not reduce MEKI or MEK2 protein levels, inhibit ERK1/2 phosphorylation or induce apoptosis
MEK1/2 [5]
  protein reduction on co-treatment with tariquidar: improved the protein reduction relative to single agent therapies

## Cc1ncsc1-c1ccc(CNC(=O)[C@@H]2C[C@@H](O)CN2C(=O)[C@@H](NC(=O)COCCOCCOCCNC(=O)C[C@@H]2N=C(c3ccc(Cl)cc3)c3c(sc(C)c3C)-n3c(C)nnc32)C(C)(C)C)cc1 [MZ1]
[6]
  cell viability of MDR1 overexpressing cells: did not reduce cell viability to the extent of cancer cell lines expressing low or no detectable MDR1 protein
[1]; [13]
  acquired resistance (cell viability dose-response): acquire resistance
[1]; SUM159 parental vs chronically exposed (MZ1-R) cells, 5 days
  acquired resistance (cell viability dose-response): resulted in degrader-resistance
[7]; MOLT4 parental or MZ1-R cells
  sensitivity after chronic exposure (cell viability): retain sensitivity
[7]; OVCAR3 and HCT116, chronic exposure
  acquired resistance (cell viability): acquired resistance
[8]; A1847 parental vs chronically exposed cells
  degradation of BET proteins by escalating doses: less effective at inducing degradation of BET proteins
[8]; SUM159 parental vs MZ1-R cells
  degradation of BET proteins by escalating doses: less effective at inducing degradation of BET proteins
MDR1 (ABCB1); A1847 cells chronically exposed to the degrader (degrader-R) vs parental
  MDR1 protein levels upregulated relative to parental cell lines by LFQ analysis: 5-5 fold
MDR1 (ABCB1); SUM159 MZ1-R cells vs parental
  MDR1 protein increase compared to parental cells (proteomics): ~4.5 fold
ABCB1 (MDR1); MOLT4 cells
  ABCB1 expression after chronic exposure: do not induce ABCB1 expression
ABCB1 (MDR1); OVCAR3 and HCT116 MZ1-R cells
  MDR1 mRNA and protein levels after chronic exposure: elevated MDR1 mRNA and protein levels
A1847 or SUM159 cells
  colony formation with forced expression of Flag-MDR1: rescued colony formation growth

## CO[C@H]1C[C@@H]2CC[C@@H](C)[C@@](O)(O2)C(=O)C(=O)N2CCCC[C@H]2C(=O)O[C@H]([C@H](C)C[C@@H]2CC[C@@H](OCCO)[C@H](OC)C2)CC(=O)[C@H](C)/C=C(\C)[C@@H](O)[C@@H](OC)C(=O)[C@H](C)C[C@H](C)/C=C/C=C/C=C/1C [RAD001, Everolimus]
MDR1 [9]
  MDR1 drug efflux activity (Rhodamine 123 efflux): reduced MDR1 drug efflux activity similar to tariquidar-treatment
[10]
  apoptosis in degrader-resistant cell lines: resulted in apoptosis similar to tariquidar treatment
DLD-1 cells; compound at 2 μM, 14 days
  growth inhibition of colonies on combination with Thal SNS 032: enhancing growth inhibition of colonies
DLD-1 cells
  colony formation on co-treatment with dBET6: exhibits drug synergy
CDK9 [11]
  degradation of CDK9 by Thal SNS 032 on combined treatment: improving degradation of CDK9
[1]; increasing concentrations, A1847 dBET6-R, Thal-R, MZ1-R and SUM159 MZ1-R
  sensitivity of degrader-resistant cells vs parental cells (cell viability): more sensitive
[8]; A1847 dBET6-R or MZ1-R vs parental, 2 μM, 4 hours
  degradation of BET proteins in degrader-resistant cell lines: resulted in degradation of BET proteins
CDK9 [12]
  degradation of CDK9 in degrader-resistant cell lines: resulted in degradation of BET proteins (FIG. 5, Panel G; FIG. 12, Panels E and F) or CDK9
MDR1 [2]; A1847 dBET6-R or Thal-R cell lines
  MDR1 drug efflux activity (Rhodamine 123 efflux): reduced MDR1 drug efflux activity similar to that observed with tariquidar
BRD4 (BET proteins); combined with the compound at 2 μM
  reduction in concentrations of dBET6 required to degrade BRD4 when combined: 100 fold
BRD4 (BET proteins)
  dBET6-mediated degradation of BRD4 on combined treatment: improved dBET6-mediated degradation of BRD4

## CN(C)C/C=C/C(=O)Nc1cc2c(Nc3ccc(F)c(Cl)c3)ncnc2cc1O[C@H]1CCOC1 [afatinib]
MDR1 [2]; A1847 Thal-R cells
  MDR1 drug efflux activity (Rhodamine 123 efflux): does not reduce MDR1 drug efflux activity

## Cc1sc2c(c1C)C(c1ccc(Cl)cc1)=N[C@@H](CC(=O)NCCCCCCCCNC(=O)COc1cccc3c1C(=O)N(C1CCC(=O)NC1=O)C3=O)c1nnc(C)n1-2 (some centres unmarked) [dBET6]
[6]
  cell viability of MDR1 overexpressing cells: did not reduce cell viability to the extent of cancer cell lines expressing low or no detectable MDR1 protein
[1]; [13]
  acquired resistance (cell viability dose-response): acquire resistance

## CC(=O)O[C@H]1C(=O)[C@@]2(C)[C@H]([C@H](OC(=O)c3ccccc3)[C@]3(O)C[C@H](OC(=O)[C@H](O)[C@@H](NC(=O)c4ccccc4)c4ccccc4)C(C)=C1C3(C)C)[C@]1(OC(C)=O)CO[C@@H]1C[C@@H]2O [paclitaxel]
[1]; BET protein or CDK9 degrader-resistant A1847 cells vs parental, 5 days
  resistance to MDR1 substrate (cell viability): acquired resistance
